Converted amounts (≈) assume the structure as drawn.
How the values were obtained:
Type in all cases: cell-based
[1] = tested on: Trichophyton mentagrophytes 2; assay: Broth microdilution MIC (M38-A), filamentous fungi, strain II
Description: (§1) For the experiments of the present invention, the dermatophyte-type fungi strains that were obtained from clinical isolates and laboratory isolates, as described in Table 2 as follows, were used:
(§2) The fungal strains were grown on agar potato medium in a sloping chute at a temperature of 30° C. for a period of 7 to 15 days.
(§3) For the experiments, the compound 1-[2-(2,4-dichlorophenyl)-2-{[4-(trifluoromethyl)benzyl]oxy}ethyl]-1H-imidazole (BL-123) in the form of its nitrate salt and miconazole nitrate were used. Both compounds were dissolved in dimethyl sulfoxide (DMSO) to match the final concentration of the compound equal to or less than 1%.
(§4) The methodology used to test the sensitivity of the agent was of broth microdilution according to the method described in Standard M38-A (Reference method for broth dilution tests for determining the sensitivity to antifungal therapy for filamentous fungi; NCCLS, volume 22 No. 16, USA, 2008) as follows.
(§5) The fungus was cultivated pursuant to item 4.1. To the tubes wherein the fungi were grown, 5 mL of saline solution were added in order to extract the fungi from the agar surface. Then, this homogeneous suspension was transferred to a new tube and the colony-forming units (CFUs) were quantified according to counting methods: (i) in Sabouraud dextrose agar plates and (ii) in a Neubauer chamber.
(§6) Then, the fungi strains listed in Table 2 were inoculated in duplicate in a 96-well plate. There were used inocula of from 2 to 6×10^3 CFU/mL of fungi, per well, in a total volume of 0.2 mL of RPMI-1640 (containing L-glutamine and without bicarbonate) buffered at pH 7.0 with MOPS (acid 3-(N-morpholine) 15 propanesulfonic). The procedure was performed in a laminar flow.
(§7) The compounds to be tested were added in a serial dilution, in duplicate, in final concentrations of 16 μg/mL; 8 μg/mL; 4 μg/mL; 2 μg/mL; 1 μg/mL; 0.5 μg/mL; 0.25 μg/mL; 0.125 μg/mL; 0.0625 μg/mL; or 0.03125 μg/mL in culture medium present in each well.
(§8) The incubation of fungi with these compounds was performed by 4, 5, 6 and 7 days at temperatures from 30 to 35° C.
(§9) The fungi quantification was carried out with the growth of fungi in each well being compared to the growth occurred in the negative control by means of a mirror reading. The negative control is represented by fungi grown in culture medium in the absence of the tested compounds. The methodology of this comparison is the numerical rating to which the microdilution well was submitted. […]

[2] = tested on: Trichophyton mentagrophytes 40004; assay: Broth microdilution MIC (M38-A), filamentous fungi, strain X
Description: as §1, §2, §3, §4, §5, §6, §7, §8, §9

[3] = tested on: Staphylococcus aureus 6538; assay: Broth microdilution MIC (M7-A6), bacteria, strain XVIII; details: Staphylococcus aureus; strain XVIII 6538, 24 hours incubation; read-out: MIC
Description: For the experiments of the present invention (i) yeast strains obtained from clinical isolates and laboratory isolates, and (ii) bacterial strains obtained from laboratory isolates were used, as described in Table 5 as follows. […] The compounds were dissolved in dimethyl sulfoxide (DMSO) to match the final concentration of the compound equal to or less than 1%. The methodology used to test the sensitivity of the agent was broth microdilution according to the method described in Standard M7-A6 (Methodology of sensitivity tests to antimicrobial agents by dilution for bacteria with aerobic growth-6th Edition: NCCLS, volume 23, No. 2, USA, 2003), as follows. […] Then the suspensions were diluted in Mueller Hinton culture medium to a final concentration of 5×10^4CFU/mL. The diluted suspensions were inoculated in 0.1 mL in duplicates in […] plates. The procedure was performed in a laminar flow. […] Incubation of fungi with these compounds was carried out for 24 hours at a temperature of 30 to 35° C. […] We have agreed in this experiment that the turbid medium is the result of microbial growth and the presence of deposit and a clear medium represents the absence of microbial growth. The minimum inhibitory concentration (MIC) was defined as the lowest tested drug concentration that prevents any degree of bacterial growth.

[4] = 96 h, strain II 2, reading Day 4, average of four experiments
[5] = 168 h, strain II 2, reading Day 7, average of four experiments
[6] = 96 h, strain X 40004, reading Day 4, average of four experiments
[7] = 168 h, strain X 40004, reading Day 7, average of four experiments

Row | SMILES | MIC [1, 4] [µg/mL] | MIC [1, 5] [µg/mL] | MIC [2, 6] [µg/mL] | MIC [2, 7] [µg/mL] | MIC [3] [µg/mL]
1 | FC(F)(F)c1ccc(COC(Cn2ccnc2)c2ccc(Cl)cc2Cl)cc1 (stereo not shown) [BL-123, 1-[2-(2,4-dichlorophenyl)-2-{[4-(trifluoromethyl)benzyl]oxy}ethyl]-1H-imidazole] | 4 (≈ 9.63 µM) | 4 (≈ 9.63 µM) | 0.25 (≈ 0.602 µM) | 0.5 (≈ 1.2 µM) | 4 (≈ 9.63 µM)
2 | Clc1ccc(COC(Cn2ccnc2)c2ccc(Cl)cc2Cl)c(Cl)c1 (stereo not shown) [Miconazole, miconazole, reference compound] | 1 (≈ 2.4 µM) | 1 (≈ 2.4 µM) | 0.5 (≈ 1.2 µM) | 1 (≈ 2.4 µM) | 2 (≈ 4.81 µM)

— patent US8975289B2, “Benzyl aralkyl ether compounds, method for preparing same, intermediate compounds, use of said compounds, method for treatment and/or prevention, pharmaceutical composition and medicament containing same” (priority 2009, dated 2015)
